Experimental findings from patent publication US4405637A, “β-Lactam antibacterial agents” (Beecham Group Limited, priority 1977, dated 1983) are described below.

Holding throughout (test): inhibition of bacterial growth, MIC (agar)
Holding throughout (assay type): cell-based

One assay deals with Staph. aureus Oxford. To be noted: Staphylococcus aureus, read-out: concentration required to inhibit growth (MIC).
In the next assay the test system is E. coli 0111. The settings on record: Escherichia coli, read-out: concentration required to inhibit growth (MIC).
Another assay has as its system Klebsiella aerogenes A. The settings on record: read-out: concentration required to inhibit growth (MIC).
A further assay has as its system Shigella sonnei MB 11967. To be noted: MB11967, read-out: concentration required to inhibit growth (MIC).
Another assay has as its system Staph. aureus Russell. The settings on record: Staphylococcus aureus, read-out: concentration required to inhibit growth (MIC).
The next assay relates to Proteus mirabilis C977. To be noted: read-out: concentration required to inhibit growth (MIC).
The test system of another assay is Strep pyogenes CN10. To be noted: Streptococcus pyogenes, Staph. pyogenes CN 10 (so in the source), read-out: concentration required to inhibit growth (MIC).
The next assay deals with Staph. aureus 1517. The settings on record: Staphylococcus aureus, read-out: concentration required to inhibit growth (MIC).
In assay [1] the test system is Salmonella typhimurium CT10. The settings on record: Salmonella enterica, read-out: concentration required to inhibit growth (MIC).
The next assay has as its system Serratia marcescens US20. To be noted: read-out: concentration required to inhibit growth (MIC).
A further assay deals with Proteus morganii I 580. The settings on record: Morganella morganii, I580, read-out: concentration required to inhibit growth (MIC).
For a further assay, the system named is Enterobacter cloacae N1. To be noted: read-out: concentration required to inhibit growth (MIC).
Another assay concerns Citrobacter freundii E8. The settings on record: read-out: concentration required to inhibit growth (MIC).
In the next assay the test system is Proteus rettgeri WM16. The settings on record: Providencia rettgeri, read-out: concentration required to inhibit growth (MIC).
A further assay concerns Bacillus subtilis A. To be noted: read-out: concentration required to inhibit growth (MIC).
The test system of the next assay is Salmonella typhimurium. To be noted: Salmonella enterica, Salmonella typhimurium (strain not given), read-out: concentration required to inhibit growth (MIC).

SMILES strings stand for the structures. In brackets after ≈: the same amount, converted by molar mass. Bounds are passed on as bounds.

Take `COC(=O)/C=C/C[C@@H]1C(=O)N2C(C(=O)OC3OC(=O)c4ccccc43)=CC[C@H]12` (relative stereo) [Compound 41, Phthalidyl 6-(3-methoxycarbonyl-2-propen-1-yl)-7-oxo-1-azabicyclo[3,2,0]hept-2-ene-2-carboxylate]: the MIC with Staph. aureus Oxford was ≤ 0.8 mg/L; with E. coli 0111, 50 mg/L (≈ 130 µM); with Klebsiella aerogenes A it was 50 mg/L (≈ 130 µM); in the assay with Shigella sonnei MB 11967, 50 mg/L (≈ 130 µM); in the assay on Staph. aureus Russell, ≤ 0.8 mg/L; in the assay with Proteus mirabilis C977, 100 mg/L (≈ 261 µM). In addition, the values for the MIC (in the assay on Strep pyogenes CN10; with Staph. aureus 1517; in assay [1]) were ≤ 0.8 mg/L, ≤ 0.8 mg/L and 50 mg/L (≈ 130 µM), respectively.
Turning to `N#C/C=C/C[C@@H]1C(=O)N2C(C(=O)OCc3ccccc3)=CC[C@H]12` (relative stereo) [Compound 56, Benzyl 6-(3-cyano-2-propen-1-yl)-7-oxo-1-azabicyclo[3,2,0]hept-2-ene-2-carboxylat], the MIC in the assay on Staph. aureus Oxford is ≤ 2 mg/L; in the assay with E. coli 0111, 20 mg/L (≈ 64.9 µM); in the assay on Klebsiella aerogenes A, 20 mg/L (≈ 64.9 µM); in the assay on Shigella sonnei MB 11967 it was 20 mg/L (≈ 64.9 µM); in the assay with Staph. aureus Russell, ≤ 2 mg/L; with Serratia marcescens US20, 20 mg/L (≈ 64.9 µM). Moreover, the MIC is 20 mg/L (≈ 64.9 µM) in the assay with Proteus mirabilis C977; 20 mg/L (≈ 64.9 µM) in the assay on Proteus morganii I 580; 20 mg/L (≈ 64.9 µM) in the assay with Enterobacter cloacae N1; 20 mg/L (≈ 64.9 µM) in the assay with Citrobacter freundii E8; ≤ 2 mg/L with Staph. aureus 1517; 20 mg/L (≈ 64.9 µM) with Proteus rettgeri WM16. The MIC (in assay [1]; in the assay with Bacillus subtilis A) was 20 mg/L (≈ 64.9 µM) each time.
As to `N#C/C=C/C[C@@H]1C(=O)N2C(C(=O)OC3OC(=O)c4ccccc43)=CC[C@H]12` (relative stereo) [Compound 61, Phthalidyl 6-(3-cyano-2-propen-1-yl)-7-oxo-1-azabicyclo[3.2.0]hept-2-ene-2-carboxylat], the MIC with Salmonella typhimurium came out at 7 mg/L (≈ 20 µM).
Regarding `CC(C)(O)[C@@H]1C(=O)N2C(C(=O)OCc3ccccc3)=CC[C@H]12` (relative stereo) [Example 4 cis-isomer, Benzyl 6-(2-hydroxy-2-propyl)-7-oxo-1-azabicyclo[3,2,0]hept-2-ene-2-carboxylate], the MIC with Staph. aureus Oxford was ≤ 2 mg/L; with Klebsiella aerogenes A, ≤ 2 mg/L; with Shigella sonnei MB 11967, ≤ 2 mg/L; in the assay with Staph. aureus Russell, ≤ 2 mg/L; in the assay with Serratia marcescens US20, 20 mg/L (≈ 66.4 µM); with Enterobacter cloacae N1, 20 mg/L (≈ 66.4 µM).
